Converted amounts (≈) assume the structure as drawn.
Key:
Format in all cases: functional
Escherichia coli [1] = experiment: Antimicrobial activity against Escherichia coli isolate CKP048 transconjugant harboring beta-lactamase KPC-2, DHA-1, qnrB4 and armA by Etest in presence of beta-lactamase inhibitor Tazobactam
Klebsiella pneumoniae [2] = experiment: Antimicrobial activity against Klebsiella pneumoniae isolate 048 expressing beta-lactamase KPC-2, DHA-1, qnrB4 and armA by Etest in presence of beta-lactamase inhibitor Tazobactam
Escherichia coli [3] = experiment: Antimicrobial activity against lacZ-negative, Nalidixic acid-, rifampicin-resistant Escherichia coli EC600 by Etest in presence of beta-lactamase inhibitor Tazobactam
Escherichia coli [4] = experiment: Antimicrobial activity against lacZ-negative, Nalidixic acid-, rifampicin-resistant Escherichia coli EC600 by Etest
Klebsiella pneumoniae [5] = experiment: Antimicrobial activity against Klebsiella pneumoniae isolate 048 expressing beta-lactamase KPC-2, DHA-1, qnrB4 and armA by Etest
Escherichia coli [6] = experiment: Antimicrobial activity against Escherichia coli isolate CKP048 transconjugant harboring beta-lactamase KPC-2, DHA-1, qnrB4 and armA by Etest

Molecule	MIC (Escherichia coli [1]) [µg/mL]	MIC (Klebsiella pneumoniae [2]) [µg/mL]	MIC (Escherichia coli [3]) [µg/mL]	MIC (Escherichia coli [4]) [µg/mL]	MIC (Klebsiella pneumoniae [5]) [µg/mL]	MIC (Escherichia coli [6]) [µg/mL]
CCN1CCN(C(=O)N[C@@H](C(=O)N[C@@H]2C(=O)N3[C@@H]2SC(C)(C)[C@@H]3C(=O)O)c2ccccc2)C(=O)C1=O [PIPERACILLIN]	> 256	> 256	2	–	–	–
CO[C@@]1(NC(=O)Cc2cccs2)C(=O)N2C(C(=O)O)=C(COC(N)=O)CS[C@@H]21 [CEFOXITIN]	–	–	–	2 (≈ 4.68 µM)	256 (≈ 599 µM)	128 (≈ 299 µM)
C[C@@H](O)[C@H]1C(=O)N2C(C(=O)O)=C(S[C@@H]3CN[C@H](C(=O)N(C)C)C3)[C@H](C)[C@H]12 [MEROPENEM]	–	–	–	0.094 (≈ 0.245 µM)	> 32	2 (≈ 5.22 µM)
CN(C)c1cc(NC(=O)CNC(C)(C)C)c(O)c2c1C[C@H]1C[C@H]3[C@H](N(C)C)C(O)=C(C(N)=O)C(=O)[C@@]3(O)C(O)=C1C2=O [TIGECYCLINE]	–	–	–	0.125 (≈ 0.213 µM)	0.38 (≈ 0.649 µM)	0.125 (≈ 0.213 µM)
CC(C)(O/N=C(\C(=O)N[C@@H]1C(=O)N2C(C(=O)[O-])=C(C[n+]3ccccc3)CS[C@H]12)c1csc(N)n1)C(=O)O [CEFTAZIDIME]	–	–	–	0.064 (≈ 0.117 µM)	96 (≈ 176 µM)	32 (≈ 58.5 µM)
NCC[C@H](O)C(=O)N[C@@H]1C[C@H](N)[C@@H](O[C@H]2O[C@H](CN)[C@@H](O)[C@H](O)[C@H]2O)[C@H](O)[C@H]1O[C@H]1O[C@H](CO)[C@@H](O)[C@H](N)[C@H]1O [AMIKACIN]	–	–	–	1 (≈ 1.71 µM)	> 256	> 256
C[C@@H](O)[C@H]1C(=O)N2C(C(=O)O)=C(SCCNC=N)C[C@H]12 [IMIPENEM ANHYDROUS]	–	–	–	0.25 (≈ 0.835 µM)	> 32	3 (≈ 10 µM)
C[C@@H](O)[C@H]1C(=O)N2C(C(=O)O)=C(S[C@@H]3CN[C@H](C(=O)Nc4cccc(C(=O)O)c4)C3)[C@H](C)[C@H]12	–	–	–	0.016 (≈ 0.0336 µM)	32 (≈ 67.3 µM)	8 (≈ 16.8 µM)
COLISTIN	–	–	–	0.25	0.38	0.38

— ChEMBL document CHEMBL1649310, “Complete nucleotide sequence of Klebsiella pneumoniae multidrug resistance plasmid pKP048, carrying blaKPC-2, blaDHA-1, qnrB4, and armA” (2010)
